Measurements from patent publication US8884013B2, “Polymorphs of Dasatinib, preparation methods and pharmaceutical compositions thereof” (Nan Jing Cavendish Bio-Engineering Technology Co., Ltd., priority 2010, dated 2014).

Tests used:
Assay type in all cases: physicochemical
[1] = Loss and regain of crystal water (sealed with strong dehydrating agent, then air)
[2] = High humidity test (room temperature, 75 ± 5% relative humidity); settings: for Hydroscopic property: high humidity test; for Appearance / Content / Weight gain of moisture absorption: room temperature, 75 ± 5% relative humidity; for Change of appearance in high humidity test (in words) / Change of content in high humidity test (in words): summary of 10-day test
Method: (§1) The raw material of Polymorph I of Dasatinib monohydrate was distributed homogeneously in open petri dish with thickness of the raw material not more than 5 mm and put into thermostatic and humidostatic incubator at room temperature (about 25° C.) and 75±5% relative humidity. Sample was tested at the 5th and 10th day respectively and the results were contrasted with that of the Day 0. Results were listed in Tab. 4.
as §1, with “II” for “I”, “Dasatinib” for “Dasatinib monohydrate”, “9.” for “4.”

[3] = Observation test of long-term sample storage

Row | Hydroscopic property [2] | Appearance ([2]; day 0) | Content ([2]; day 0) | Weight gain of moisture absorption ([2]; day 0) | Appearance ([2]; day 5) | Content ([2]; day 5) | Weight gain of moisture absorption ([2]; day 5) | Appearance ([2]; day 10) | Content ([2]; day 10) | Weight gain of moisture absorption ([2]; day 10) | Change of appearance in high humidity test (in words) [2] | Change of content in high humidity test (in words) [2] | Change of content (in words) [3] | Change of related substances (in words) [3] | Crystal transformation [3] | SMILES | Behaviour in a sealed surrounding with strong dehydrating agent ([1]; allochroic silicagel, phosphorus pentoxide etc.) | Behaviour of the polymorph losing part crystal moisture in air environment ([1]; put in air environment)
1 | lower | white powder | 99.7% | 3.57% | white powder | 99.6% | 3.73% | white powder | 99.7% | 3.76% | no obvious change | no obvious change | decreased slightly | increased slightly | not found | Cc1nc(Nc2ncc(C(=O)Nc3c(C)cccc3Cl)s2)cc(N2CCN(CCO)CC2)n1 [Polymorph I, N-(2-chloro-6-methylphenyl)-2-[[6-[4-(2-hydroxyethyl)-1-piperazinyl]-2-methyl-4-pyrimidyl]amino]-5-thiazolformamide] | lose crystal water (partly to all) step by step | return to the Polymorph I with one crystal water step by step
2 | lower | white powder | 99.8% | 0.57% | white powder | 99.7% | 3.63% | white powder | 99.8% | 3.72% | no obvious change | no obvious change |  |  |  | Cc1nc(Nc2ncc(C(=O)Nc3c(C)cccc3Cl)s2)cc(N2CCN(CCO)CC2)n1 [Polymorph II, N-(2-chloro-6-methylphenyl)-2-[[6-[4-(2-hydroxyethyl)-1-piperazinyl]-2-methyl-4-pyrimidyl]amino]-5-thiazolformamide] |  | 
